From patent publication US11865126B2, “Method for treating anxiety disorders, headache disorders, and eating disorders with psilocybin” (priority 2019, dated 2024) come the findings set out here.

SMILES strings stand for the structures.

The assay has as its system healthy subjects. Nature of the assay: Reading the Mind in the Eyes Test (RMET). Type of assay: in vivo, human. The text has this: In some embodiments, Reading the Mind in the Eyes Test (RMET) is utilized to evaluate the safety and/or efficacy of psilocybin. The RMET has 36 items, in which subjects are presented with a photograph of the eyes region of the face and must choose 1 of 4 adjectives or phrases to describe the mental state of the person pictured. A definition handout is provided at the beginning of the task and a practice item precedes the first trial.
The following list of outcome measures are non-exhaustive. • a. The short-term change from Baseline (Day −1 [Visit 2]) to Day 7 (Visit 5) in cognitive measures of attention, spatial and working memory and executive function was measured by a composite score of the CANTAB Panel (Spatial Working Memory [SWM], Rapid Visual Information Processing [RVP], Paired Associates Learning [PAL]). • b. The short-term change from Baseline (Day −1 [Visit 2]) to Day 7 (Visit 5) in Social Cognition Panel scales (Pictorial Empathy Test [PET], Reading the Mind in the Eyes Test [RMET], Toronto Empathy Questionnaire [TEQ], Social Value Orientation [SVO], Scale of Social Responsibility [SSR]). • c. The change from Baseline (Day −1 [Visit 2]) to Day 28 (Visit 6) in cognitive measures of attention, spatial and working memory and executive function as measured by a composite score of the CANTAB Panel (SWM, RVP, PAL). • d. The long-term change from Baseline (Day −1 [Visit 2]) to Day 84 (Visit 7) in Social Cognition Panel scales (PET, RMET, TEQ, SVO, SSR). • e. Dose-related differences between cognitive effects of psilocybin at Baseline (Day −1 [Visit 2]), Day 7 (Visit 5) and Day 28 (Visit 6), as measured by a composite score of the CANTAB Panel (SWM, RVP, PAL). • f. Dose-related differences between psychological effects of psilocybin at Baseline (Day −1 [Visit 2]), Day 7 (Visit 5) and Day 84 (Visit 7), as measured by Social Cognition Panel scales (PET, RMET, TEQ, SVO, SSR). • g. Differences in cognitive effects of psilocybin between psilocybin-naïve and experienced subjects at Baseline (Day −1 [Visit 2]), Day 7 (Visit 5) and Day 28 (Visit 6), as measured by a composite score of the CANTAB Panel (SWM, RVP, PAL). • h. Differences in Positive and Negative Affect Schedule (PANAS) after study drug administration on Day 0 (Visit 3). • i. Differences between psilocybin and placebo in the Emotion Recognition Test (ERT), Intra-Extra Dimensional Set Shift (IED), One Touch Stockings (OTS), Verbal Fluency and Digit Span Forward at Day 7 (Visit 5). • j. A composite score of the CANTAB Panel, including the following tests: • i. Spatial Working Memory (SWM) (performed at Visit 2, Visit 5, and Visit 6). • ii. Rapid Visual Information Processing (RVP) (performed at Visit 2, Visit 5, and Visit 6). • iii. Paired Associates Learning (PAL) (performed at Visit 2, Visit 5, and Visit 6). • k. Cognitive Flexibility Panel • i. Emotion Recognition Task (ERT) (performed at Visit 5). • ii. Intra-Extra Dimensional Set Shift (IED) (performed at Visit 5). • iii. One Touch Stockings (OTS) (performed at Visit 5). • iv. Verbal Fluency (performed at Visit 5). • v. Digit Span Forward (performed at Visit 5). • l. Five Dimension Altered States of Consciousness questionnaire (5D-ASC) (performed at Visit 3). • m. PANAS (performed at Visit 2 and Visit 3). • n. NEO-Five Factor Inventory (NEO-FFI) (performed at Visit 2, Visit 5, and Visit 7). • o. Symptom Checklist-90 item (SCL-90) (performed at Visit 2, Visit 5, and Visit 7). • p. Life Changes Inventory (LCI): The LCI measures changes in attitudes and values after near-death experiences often used to evaluate personal transformation following spiritually oriented experiences and practices. (performed at Visit 5 and Visit 7). • q. Social Cognition Panel scales • i. Pictorial Empathy Test (PET) (performed at Visit 2, Visit 5, and Visit 7). • ii. Reading the Mind in the Eyes Test (RMET) (performed at Visit 2, Visit 5, and Visit 7). • iii. Social Value Orientation (SVO) (performed at Visit 2, Visit 5, and Visit 7). • iv. […]

In the case of `CN(C)CCc1c[nH]c2cccc(OP(=O)(O)O)c12` [psilocybin], where the note is “Day 7, MMRM”, the “RMET change from baseline, LS mean difference Psilocybin 10 mg - Placebo” value is listed as 0.1; the “RMET change from baseline, LS mean difference Psilocybin 25 mg - Placebo” value is given as 0.2; the “RMET change from baseline, LS mean difference Psilocybin 25 mg-10 mg” value stood at 0.0. Also, for the setting “Day 84, MMRM”, the “RMET change from baseline, LS mean difference Psilocybin 10 mg - Placebo” value is listed as 0.2; the “RMET change from baseline, LS mean difference Psilocybin 25 mg - Placebo” value came to 0.5; the “RMET change from baseline, LS mean difference Psilocybin 25 mg-10 mg” value is 0.3.
